Read-outs that look alike come from different tables or passages of the source. One block for each compound: values may come before it. Bridge positions count the residues as written; N and C are the ends. Ends that are not written are not given here. Peptide text beside a SMILES is read from it.
Legend:
bovine trypsin = molecular target: T1, bovine trypsin (Bos taurus, UniProt P00760); assay: Surface plasmon resonance binding to trypsin
T1 sequence (P00760 24-246): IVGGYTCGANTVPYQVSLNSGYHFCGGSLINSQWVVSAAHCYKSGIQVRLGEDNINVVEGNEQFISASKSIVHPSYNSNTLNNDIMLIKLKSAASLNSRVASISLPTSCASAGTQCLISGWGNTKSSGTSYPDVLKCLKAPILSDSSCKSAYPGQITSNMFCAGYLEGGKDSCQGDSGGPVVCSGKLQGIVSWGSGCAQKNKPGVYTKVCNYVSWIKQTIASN

Human β-FXIIa = molecular target: T2, Human β-FXIIa (Homo sapiens, UniProt P00748); assay: FXIIa competitive inhibition assay, colorimetric substrate Ac-QRFR-pNA; type: biochemical
T2 construct: Human β-FXIIa was obtained from Molecular Innovations, together with human FXa, human FXIa, human α-thrombin, and human plasma kallikrein; purchased Molecular Innovations; host or cells: purified from human plasma
T2 sequence (P00748 373-615 limits assumed, other chains not shown): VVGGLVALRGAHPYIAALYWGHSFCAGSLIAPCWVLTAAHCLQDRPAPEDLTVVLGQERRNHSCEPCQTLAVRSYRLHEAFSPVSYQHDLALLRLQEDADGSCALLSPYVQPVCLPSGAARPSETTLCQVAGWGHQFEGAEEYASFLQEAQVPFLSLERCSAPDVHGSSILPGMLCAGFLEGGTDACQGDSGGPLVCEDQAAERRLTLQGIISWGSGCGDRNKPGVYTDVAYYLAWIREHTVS
Protocol: (§1) The activity of acyclic and cyclic MCoFx1-5 and analogues thereof was assessed in competitive inhibition assays, as previously described in Swedberg et al. (2016) J Med Chem, 59: 7287-7292. Human β-FXIIa was obtained from Molecular Innovations, together with human FXa, human FXIa, human α-thrombin, and human plasma kallikrein. Human cationic trypsin and human plasmin were obtained from Sigma-Aldrich, and recombinant human matriptase was sourced from R&D Systems. Recombinant human urokinase (uPA) and recombinant human tissue plasminogen activator (tPA) were expressed in Expi293 cells, as previously described in Li et al. (2019) Chembiochem, 20: 46-50. FXIIa inhibition assays were performed in clear, low-binding 96-well plates using 250 μL (final volume) of assay buffer (0.1 M Tris-HCl pH 8.0, 0.1 M NaCl, 10 mM CaCl2 and 0.005% Triton X-100). Inhibitors were serially diluted and incubated with 10 nM FXIIa at room temperature to reach equilibrium. After adding 100 μM Ac-QRFR-pNA substrate (KM=162 μM), enzymatic activity was measured by monitoring release of the pNA moiety using a TECAN infinite M1000 Pro plate reader (A=405 nm, reading interval, 10 s; assay time course, 7 min). Assays were conducted in three times in duplicate. Substrate kinetic constants (Michaelis-Menten) and inhibition constants (Morrison K) were determined by non-linear regression using Prism 7 (GraphPad). Selectivity assays with off-target proteases were performed in a similar way, except that different concentrations of enzyme and substrate were used, as indicated in Table 16. For assays using a fluorescent substrate (peptide-4-methylcoumaryl-7-amide, MCA), black low-binding 96-well plates were used and activity was measured using a TECAN infinite M1000 pro plate reader (λex 360 nm, λem 460 nm, reading interval, 30 s; assay time course, 5-30 min).

[1] = molecular target: T3, biotinylated human β-FXIIa (Homo sapiens, UniProt P00748); assay: Surface plasmon resonance binding to FXIIa
T3 construct: purchased Molecular Innovations
T3 sequence (P00748 373-615 limits assumed, other chains not shown): as above
Protocol: Binding kinetics of each peptide towards biotinylated human β-FXIIa (Molecular Innovations) and non-labelled zymogen FXII (Haematologic Technologies) were determined using a Biacore T200 machine (Cytiva). For β-FXIIa binding measurements, the running buffer was HBS-EP+(10 mM HEPES, 150 mM NaCl, 3 mM EDTA and 0.05% (v/v) surfactant P20, pH 7.4). Biotinylated β-FXIIa was immobilized on a Sensor Chip CAP (Cytiva) using Biotin CAPture Reagent (Cytiva). A series of concentrations of each peptide were injected as analyte and the binding kinetics were modelled using a 1:1 binding model. Regeneration of sensor surface was performed after each measurement cycle. For FXII binding measurements, the running buffer was PBST (137 mM NaCl, 2.7 mM KCl, 10 mM Na2HPO4, 1.8 mM KH2PO4, 0.05% Tween-20). Non-labelled FXII was immobilized on a Sensor Chip CM5 (Cytiva) using Amine Coupling Kit (Cytiva), achieving a final immobilization level of 2500 RU. Each peptide was flowed through immobilized FXII at 5 μM for 60 s and allowed dissociation for 150 s.

Stability in human serum = assay: Stability in human serum
Protocol: Briefly, peptides were incubated at a final concentration of 30 μM in human serum (human male AB serum, Sigma-Aldrich) at 37° C. for 0, 1, 12 and 24 h. The reaction was stopped at designated times, with the serum proteins being denatured by addition of two volumes of acetonitrile (v/v). The samples were then spun at 17,000 g for 10 min and the amount of peptide in the supernatant was quantified using analytical HPLC. The percentage of peptide remaining at 1, 12 and 24 h was calculated using the area of the serum-treated peptide peak from 0 h as 100%.

Rec. human matriptase = molecular target: T4, Rec. human matriptase (Homo sapiens, UniProt Q9Y5Y6); assay: Matriptase inhibition assay; type: biochemical
T4 construct: purchased R&D Systems
T4 sequence (Q9Y5Y6 615-855 limits assumed): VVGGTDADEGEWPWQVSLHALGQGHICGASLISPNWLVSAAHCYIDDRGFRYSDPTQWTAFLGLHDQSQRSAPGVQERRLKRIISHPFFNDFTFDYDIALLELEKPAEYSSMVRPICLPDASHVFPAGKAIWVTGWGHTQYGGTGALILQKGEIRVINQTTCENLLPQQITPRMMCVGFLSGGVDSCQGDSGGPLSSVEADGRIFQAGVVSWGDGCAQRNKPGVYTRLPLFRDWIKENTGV
Protocol: as §1

Human trypsin = molecular target: T5, Human trypsin (Homo sapiens, UniProt P07477); assay: Trypsin competitive inhibition assay; type: biochemical
T5 construct: purchased Sigma-Aldrich; host or cells: purified from human tissue
Protocol: as §1

Human FXIa = molecular target: T6, Human FXIa (Homo sapiens, UniProt P03951); assay: FXIa inhibition assay; type: biochemical
T6 construct: Human β-FXIIa was obtained from Molecular Innovations, together with human FXa, human FXIa, human α-thrombin, and human plasma kallikrein; purchased Molecular Innovations; host or cells: purified from human plasma
T6 sequence (P03951 388-625 limits assumed): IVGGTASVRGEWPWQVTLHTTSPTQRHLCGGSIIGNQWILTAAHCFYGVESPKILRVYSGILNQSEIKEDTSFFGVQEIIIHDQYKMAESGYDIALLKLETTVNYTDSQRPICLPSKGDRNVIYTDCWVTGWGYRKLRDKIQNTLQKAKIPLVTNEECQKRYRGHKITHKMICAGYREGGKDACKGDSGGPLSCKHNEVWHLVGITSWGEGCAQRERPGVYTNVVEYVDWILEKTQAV
T6 sequence (P03951 19-387 partner limits assumed): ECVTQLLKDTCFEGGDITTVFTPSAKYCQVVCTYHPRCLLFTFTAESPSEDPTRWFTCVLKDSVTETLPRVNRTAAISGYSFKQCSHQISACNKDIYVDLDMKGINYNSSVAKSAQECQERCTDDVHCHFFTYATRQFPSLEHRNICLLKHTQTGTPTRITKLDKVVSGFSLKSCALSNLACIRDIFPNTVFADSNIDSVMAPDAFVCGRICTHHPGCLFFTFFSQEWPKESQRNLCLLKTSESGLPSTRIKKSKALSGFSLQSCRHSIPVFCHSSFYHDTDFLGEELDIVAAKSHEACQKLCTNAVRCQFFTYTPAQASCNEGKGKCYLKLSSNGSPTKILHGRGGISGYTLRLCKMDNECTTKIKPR
Protocol: as §1

Rec. human tPA = molecular target: T7, Rec. human tPA (Homo sapiens, UniProt P00750); assay: tPA inhibition assay; type: biochemical
T7 construct: made in house; host or cells: Expi293 cells
T7 sequence (P00750 36-562): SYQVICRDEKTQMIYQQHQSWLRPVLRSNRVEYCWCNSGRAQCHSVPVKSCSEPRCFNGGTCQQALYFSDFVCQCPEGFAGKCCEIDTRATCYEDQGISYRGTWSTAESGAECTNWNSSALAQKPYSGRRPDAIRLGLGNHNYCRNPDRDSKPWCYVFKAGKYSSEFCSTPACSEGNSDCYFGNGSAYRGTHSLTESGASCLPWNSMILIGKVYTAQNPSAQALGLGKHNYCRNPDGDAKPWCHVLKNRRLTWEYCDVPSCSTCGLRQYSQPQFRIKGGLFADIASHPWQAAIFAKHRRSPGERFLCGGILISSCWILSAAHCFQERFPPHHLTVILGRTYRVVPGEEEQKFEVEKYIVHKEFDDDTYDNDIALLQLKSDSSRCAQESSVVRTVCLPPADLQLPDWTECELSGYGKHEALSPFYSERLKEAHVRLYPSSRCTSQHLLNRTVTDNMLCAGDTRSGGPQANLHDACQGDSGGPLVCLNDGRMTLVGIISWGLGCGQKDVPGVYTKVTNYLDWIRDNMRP
Protocol: as §1

Rec. human uPA = molecular target: T8, Rec. human uPA (Homo sapiens, UniProt P00749); assay: uPA inhibition assay; type: biochemical
T8 construct: made in house; host or cells: Expi293 cells
Protocol: as §1

Human FXa = molecular target: T9, Human FXa (Homo sapiens, UniProt P00742); assay: FXa inhibition assay; type: biochemical
T9 construct: Human β-FXIIa was obtained from Molecular Innovations, together with human FXa, human FXIa, human α-thrombin, and human plasma kallikrein; purchased Molecular Innovations; host or cells: purified from human plasma
T9 sequence (P00742 235-488 limits assumed): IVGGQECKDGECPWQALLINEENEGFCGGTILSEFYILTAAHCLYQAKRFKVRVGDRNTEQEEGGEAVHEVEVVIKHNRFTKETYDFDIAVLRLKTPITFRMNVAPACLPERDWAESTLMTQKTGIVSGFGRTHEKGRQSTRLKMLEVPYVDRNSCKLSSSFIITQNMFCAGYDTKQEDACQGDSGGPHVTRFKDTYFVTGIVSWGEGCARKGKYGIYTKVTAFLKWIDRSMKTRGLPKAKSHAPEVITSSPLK
T9 sequence (P00742 41-179 partner limits assumed): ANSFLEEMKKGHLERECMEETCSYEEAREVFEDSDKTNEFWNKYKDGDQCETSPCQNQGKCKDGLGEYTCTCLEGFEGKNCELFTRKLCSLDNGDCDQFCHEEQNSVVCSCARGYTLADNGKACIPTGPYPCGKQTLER
Protocol: as §1

Human thrombin = molecular target: T10, Human thrombin (Homo sapiens, UniProt P00734); assay: Thrombin inhibition assay; type: biochemical
T10 construct: Human β-FXIIa was obtained from Molecular Innovations, together with human FXa, human FXIa, human α-thrombin, and human plasma kallikrein; purchased Molecular Innovations; host or cells: purified from human plasma
Protocol: as §1

Human plasmin = molecular target: T11, Human plasmin (Homo sapiens, UniProt P00747); assay: Plasmin inhibition assay; type: biochemical
T11 construct: Human cationic trypsin and human plasmin were obtained from Sigma-Aldrich, and recombinant human matriptase was sourced from R&D Systems; purchased Sigma-Aldrich; host or cells: purified from human plasma
T11 sequence (P00747 581-810 limits assumed): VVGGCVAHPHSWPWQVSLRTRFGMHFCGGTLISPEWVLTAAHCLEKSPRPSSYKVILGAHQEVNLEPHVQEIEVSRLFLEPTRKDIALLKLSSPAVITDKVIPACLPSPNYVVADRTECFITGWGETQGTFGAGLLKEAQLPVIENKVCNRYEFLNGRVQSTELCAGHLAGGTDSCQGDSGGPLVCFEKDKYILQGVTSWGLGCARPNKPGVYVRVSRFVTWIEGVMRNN
T11 sequence (P00747 97-580 partner limits assumed): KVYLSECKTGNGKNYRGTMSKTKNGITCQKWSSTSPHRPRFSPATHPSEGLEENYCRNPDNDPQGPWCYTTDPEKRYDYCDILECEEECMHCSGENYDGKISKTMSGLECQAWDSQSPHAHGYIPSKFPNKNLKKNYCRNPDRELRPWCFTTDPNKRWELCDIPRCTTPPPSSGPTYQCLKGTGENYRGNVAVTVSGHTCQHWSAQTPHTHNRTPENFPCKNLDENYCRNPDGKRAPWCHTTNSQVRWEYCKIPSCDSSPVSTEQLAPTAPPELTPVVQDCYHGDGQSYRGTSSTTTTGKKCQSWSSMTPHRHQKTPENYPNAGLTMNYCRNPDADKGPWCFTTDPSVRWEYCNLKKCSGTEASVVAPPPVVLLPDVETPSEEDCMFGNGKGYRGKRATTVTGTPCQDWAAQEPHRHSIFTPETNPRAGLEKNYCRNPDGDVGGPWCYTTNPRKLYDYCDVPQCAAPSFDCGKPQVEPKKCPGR
Protocol: as §1

Human plasma kallikrein = molecular target: T12, Human plasma kallikrein (Homo sapiens, UniProt P03952); assay: Plasma kallikrein inhibition assay; type: biochemical
T12 construct: Human β-FXIIa was obtained from Molecular Innovations, together with human FXa, human FXIa, human α-thrombin, and human plasma kallikrein; purchased Molecular Innovations; host or cells: purified from human plasma
T12 sequence (P03952 391-638 limits assumed): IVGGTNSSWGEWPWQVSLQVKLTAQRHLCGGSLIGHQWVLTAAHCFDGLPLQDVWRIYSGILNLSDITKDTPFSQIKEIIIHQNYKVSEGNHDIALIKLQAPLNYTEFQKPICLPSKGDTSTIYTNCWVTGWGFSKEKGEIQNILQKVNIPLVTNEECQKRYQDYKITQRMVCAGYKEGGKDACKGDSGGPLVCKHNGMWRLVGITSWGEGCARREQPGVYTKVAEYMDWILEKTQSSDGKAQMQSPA
T12 sequence (P03952 20-390 partner limits assumed): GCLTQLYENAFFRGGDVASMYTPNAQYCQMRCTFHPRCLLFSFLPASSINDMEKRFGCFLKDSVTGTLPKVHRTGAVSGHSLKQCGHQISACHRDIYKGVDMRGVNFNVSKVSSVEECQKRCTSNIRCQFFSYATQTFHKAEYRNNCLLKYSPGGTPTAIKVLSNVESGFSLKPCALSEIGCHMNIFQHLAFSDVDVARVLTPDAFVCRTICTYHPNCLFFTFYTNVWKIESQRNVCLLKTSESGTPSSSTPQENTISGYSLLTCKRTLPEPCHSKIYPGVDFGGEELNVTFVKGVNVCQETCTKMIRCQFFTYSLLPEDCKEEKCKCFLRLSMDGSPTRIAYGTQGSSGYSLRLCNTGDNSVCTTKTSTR
Protocol: as §1

Compound: CC[C@H](C)[C@H](NC(=O)CNC(=O)CNC(=O)[C@@H](N)CC(=O)O)C(=O)N[C@H]1CSSC[C@@H]2NC(=O)[C@H](C)NC(=O)CNC(=O)[C@@H]3CCCN3C(=O)[C@@H]3CSSC[C@@H](C(=O)NCC(=O)N[C@@H](CO)C(=O)NCC(=O)N[C@@H](Cc4ccc(O)cc4)C(=O)O)NC(=O)[C@H](Cc4ccccc4)NC(=O)[C@H](CCCNC(=N)N)NC(=O)[C@H]([C@@H](C)O)NC(=O)[C@H](C)NC(=O)[C@H](CCCNC(=N)N)NC(=O)[C@H](CSSC[C@H](NC(=O)[C@H](CC(C)C)NC(=O)[C@H](CCCNC(=N)N)NC(=O)CNC(=O)[C@H]([C@@H](C)CC)NC(=O)[C@H](CCCNC(=N)N)NC(=O)[C@@H]4CCCN4C1=O)C(=O)N[C@@H](CCCNC(=N)N)C(=O)N[C@@H](CCCNC(=N)N)C(=O)N[C@@H](CC(=O)O)C(=O)N[C@@H](CO)C(=O)N[C@@H](CC(=O)O)C(=O)N3)NC(=O)[C@H]([C@@H](C)CC)NC2=O [MCoFx1 acyclic] (H-DGGICPRIGRLCRRDSDCPGACICRATRFCGSGY-OH; disulfide 5-22, 12-24, 18-30)
- Kd (bovine trypsin): 59.6 nM
- Ki (Human β-FXIIa): 0.73 ± 0.2 nM
- Kd [1]: 1.89 ± 0.04 nM
- resistance to serum proteases (in words) (Stability in human serum; human serum, 37° C., up to 24 h): highly resistant to serum proteases

Compound: CC[C@H](C)[C@@H]1NC(=O)[C@@H]2CSSC[C@H](NC(=O)[C@@H](NC(=O)CNC(=O)CNC(=O)[C@@H](N)CC(=O)O)C(C)C)C(=O)N3CCC[C@H]3C(=O)N[C@@H](CCCNC(=N)N)C(=O)N[C@@H](C(C)C)C(=O)NCC(=O)N[C@@H](Cc3c[nH]c4ccccc34)C(=O)N[C@@H](CCCNC(=N)N)C(=O)N[C@H]3CSSC[C@H](NC1=O)C(=O)N[C@@H](Cc1ccc(O)cc1)C(=O)N1CCC[C@H]1C(=O)N[C@@H]([C@@H](C)O)C(=O)N[C@@H](CCCCN)C(=O)N[C@@H](Cc1c[nH]c4ccccc14)C(=O)N[C@H](C(=O)NCC(=O)N[C@@H](CO)C(=O)NCC(=O)N[C@@H](CO)C(=O)O)CSSC[C@H](NC(=O)[C@H](CC(=O)O)NC(=O)[C@H](CO)NC(=O)[C@H](CC(=O)O)NC(=O)[C@H](CCCNC(=N)N)NC(=O)[C@H](CCCNC(=N)N)NC3=O)C(=O)N1CCC[C@H]1C(=O)NCC(=O)N[C@@H](C)C(=O)N2 [MCoFx4 acyclic] (H-DGGVCPRVGWRCRRDSDCPGACICYPTKWCGSGS-OH; disulfide 5-22, 12-24, 18-30)
- Kd (bovine trypsin): 15.1 nM
- Ki (Human β-FXIIa): 17 ± 0.9 nM
- Kd [1]: 73.8 ± 6.3 nM

Compound: CC[C@H](C)[C@@H]1NC(=O)[C@@H]2CSSC[C@@H]3NC(=O)[C@H](C(C)C)NC(=O)CNC(=O)CNC(=O)[C@H](CC(=O)O)NC(=O)[C@H](CO)NC(=O)CNC(=O)[C@H](CO)NC(=O)CNC(=O)[C@@H]4CSSC[C@H](NC(=O)[C@H](CC(=O)O)NC(=O)[C@H](CO)NC(=O)[C@H](CC(=O)O)NC(=O)[C@H](CCCNC(=N)N)NC(=O)[C@H](CCCNC(=N)N)NC(=O)[C@H](CSSC[C@H](NC1=O)C(=O)N[C@@H](Cc1ccc(O)cc1)C(=O)N1CCC[C@H]1C(=O)N[C@@H]([C@@H](C)O)C(=O)N[C@@H](CCCCN)C(=O)N[C@@H](Cc1c[nH]c5ccccc15)C(=O)N4)NC(=O)[C@H](CCCNC(=N)N)NC(=O)[C@H](Cc1c[nH]c4ccccc14)NC(=O)CNC(=O)[C@H](C(C)C)NC(=O)[C@H](CCCNC(=N)N)NC(=O)[C@@H]1CCCN1C3=O)C(=O)N1CCC[C@H]1C(=O)NCC(=O)N[C@@H](C)C(=O)N2 [MCoFx4 cyclic] (cyclo(ACICYPTKWCGSGSDGGVCPRVGWRCRRDSDCPG); disulfide 2-19, 4-26, 10-32)
- Kd (bovine trypsin; Table 8, cyclic form, read-out: KD (nM) Trypsin Cyclic): 4.09 nM
- Ki (Human β-FXIIa; Table 7, FXIIa, cyclic form of the peptide, read-out: Ki (nM) Cyclic): 5.5 ± 0.5 nM
- Kd ([1]; Table 8, cyclic form, read-out: KD (nM) FXIIa Cyclic): 14.4 ± 1.1 nM

Compound: CC[C@H](C)[C@@H]1NC(=O)[C@@H]2CSSC[C@@H]3NC(=O)[C@H](C(C)C)NC(=O)CNC(=O)CNC(=O)[C@H](CC(=O)O)NC(=O)[C@H](CO)NC(=O)CNC(=O)[C@H](CO)NC(=O)CNC(=O)[C@@H]4CSSC[C@H](NC(=O)[C@H](CC(=O)O)NC(=O)[C@H](CO)NC(=O)[C@H](CC(=O)O)NC(=O)[C@H](CCCNC(=N)N)NC(=O)[C@H](CCCNC(=N)N)NC(=O)[C@H](CSSC[C@H](NC1=O)C(=O)N[C@@H](CCCNC(=N)N)C(=O)N[C@@H](C)C(=O)N[C@@H]([C@@H](C)O)C(=O)N[C@@H](CCCNC(=N)N)C(=O)N[C@@H](Cc1ccccc1)C(=O)N4)NC(=O)[C@H](CCCCN)NC(=O)[C@H](CCCCN)NC(=O)[C@H](CC(C)C)NC(=O)[C@H]([C@@H](C)CC)NC(=O)[C@H](CCCCN)NC(=O)[C@@H]1CCCN1C3=O)C(=O)N1CCC[C@H]1C(=O)NCC(=O)N[C@@H](C)C(=O)N2 [cMCoTI-fxL5] (cyclo(ACICRATRFCGSGSDGGVCPKILKKCRRDSDCPG); disulfide 2-19, 4-26, 10-32)
- Ki (Rec. human matriptase): 17 nM
- Ki (Human trypsin): 0.08 nM
- IC50 (Human FXIa): > 5000 nM
- inhibition at 5 µM (Human FXIa; read-out: percent inhibition FXIa): 1%
- IC50 (Rec. human tPA): > 5000 nM
- inhibition at 5 µM (Rec. human tPA; read-out: percent inhibition tPA): 1%
- IC50 (Rec. human uPA): > 5000 nM
- inhibition at 5 µM (Rec. human uPA; read-out: percent inhibition uPA): 0%
- IC50 (Human FXa): > 5000 nM
- inhibition at 5 µM (Human FXa; read-out: percent inhibition FXa): 0%
- IC50 (Human thrombin): > 5000 nM
- inhibition at 5 µM (Human thrombin; read-out: percent inhibition Thrombin): 3%
- Ki (Human β-FXIIa): 66 nM
- Ki (Human plasmin): 31 nM
- IC50 (Human plasma kallikrein): > 5000 nM
- inhibition at 5 µM (Human plasma kallikrein; read-out: percent inhibition Plasma kallikrein): 0%

- time to degradation in human serum (Stability in human serum): ≤ 1 h
Compound: EAIYAAPFAKKK [reference compound]
